Results reported in patent US8933018B2, “Boron containing polybasic bacterial efflux pump inhibitors and therapeutic uses thereof” (priority 2011, dated 2015).
Where two headings read alike, the source gives them in different places.

What was measured:
[1] = test system: P. aeruginosa PAM3062, which overexpresses the MexAB-OprM efflux pump; format: in vivo, Pseudomonas aeruginosa; details: neutropenic rats, lung, 1.5 hr IV infusion, 24 hours after start of treatment
Procedure: Rats are made neutropenic by administration of a 75 mg/kg dose of cyclophosphamide 2 days prior to infection. Immediately prior to infection, rats are anesthetized with isoflurane. Lung infection is established by intratracheal instillation of ˜1×10^7 CFU/lung. P. aeruginosa PAM3062, which overexpresses the MexAB-OprM efflux pump, is used for infection. All treatments are initiated 4 hours after infection and are administered by 1.5 hr IV infusion twice daily. Rats are sacrificed 24 hours after the start of treatment; lungs are homogenized, serially diluted, and plated to determine colony counts.

[2] = test system: P. aeruginosa, PAM1723, overexpressing the MexAB-OprM efflux pump; format: cell-based, Pseudomonas aeruginosa; details: lowest EPI concentration giving antibacterial activity with levofloxacin at 1/8 of its MIC, MHB, 20 h at 35° C.
Summary of the method: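 Checkerboard microdilution in Mueller Hinton Broth, with EPI concentrations varied along one axis. The inoculum was 5 times 10^5 CFU/ml from early-log culture. Plates were incubated 20 h at 35° C, and growth was read at 650 nm and by visual inspection.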

SMILES	MPC8 (Minimum Potentiating Concentration) [2]	other results
NCCN(CCN)C(=O)CC[C@H](N)C(=O)N[C@H](Cc1ccc(C(F)(F)F)cc1)C(=O)Nc1cccc(B(O)O)c1 [Compound 2]	B (B = MPC8 of 2.5 μg/ml to less than 10 μg/mL.)	Δlog CFU ([1]; levofloxacin 100 (50 BID) mg/kg + EPI 40 (20 BID) mg/kg 24 hr dose): −1.74
NCCN(CCN)C(=O)CC[C@H](N)C(=O)N[C@H](CCc1ccc(C(F)(F)F)cc1)C(=O)Nc1ccc2c(c1)B(O)OC2 [Compound 6, (S)-2-amino-N5,N5-bis(2-aminoethyl)-N1-((R)-1-(1-hydroxy-1,3-dihydrobenzo[c][1,2]oxaborol-6-ylamino)-1-oxo-4-(4-(trifluoromethyl)phenyl)butan-2-yl)pentanediamide]	B (B = MPC8 of 2.5 μg/ml to less than 10 μg/mL.)	Δlog CFU ([1]; levofloxacin 100 (50 BID) mg/kg + EPI 16 (8 BID) mg/kg 24 hr dose): −2.99
NCCN(CCN)C(=O)CC[C@H](N)C(=O)N[C@H](CCc1ccc(C(F)(F)F)cc1)C(=O)Nc1cccc(B(O)O)c1 [Compound 14, 3-((R)-2-((S)-2-amino-5-(bis(2-aminoethyl)amino)-5-oxopentanamido)-4-(4-(trifluoromethyl)phenyl)butanamido)phenylboronic acid]	B (B = MPC8 of 2.5 μg/ml to less than 10 μg/mL.)	Δlog CFU ([1]; levofloxacin 100 (50 BID) mg/kg + EPI 20 (10 BID) mg/kg 24 hr dose): −1.13
CC1(C)OB(O)c2cc(NC(=O)[C@@H](Cc3ccc(C(F)(F)F)cc3)NC(=O)[C@@H](N)CCC(=O)N(CCN)CCN)ccc21 [Compound 20, (S)-2-Amino-N5,N5-bis(2-aminoethyl)-N1-((R)-1-(1-hydroxy-3,3-dimethyl-1,3-dihydrobenzo[c][1,2]oxaborol-6-ylamino)-1-oxo-3-(4-(trifluoromethyl)phenyl)propan-2-yl)pentanediamide]	A (A = MPC8 of less than 2.5 μg/mL.)	Δlog CFU ([1]; levofloxacin 100 (50 BID) mg/kg + EPI 10 (5 BID) mg/kg 24 hr dose): −1.75
CC1(C)OB(O)c2c1ccc(F)c2NC(=O)[C@@H](CCc1ccc(C(F)(F)F)cc1)NC(=O)[C@@H](N)CCC(=O)N(CCN)CCN [Compound 103, (S)-2-amino-N^5,N^5-bis(2-aminoethyl)-N^1-((R)-1-(6-fluoro-1-hydroxy-3,3-dimethyl-1,3-dihydrobenzo[c][1,2]oxaborol-7-ylamino)-1-oxo-4-(4-(trifluoromethyl)phenyl)butan-2-yl)pentanediamide]	B (B = MPC8 of 2.5 μg/ml to less than 10 μg/mL.)	
CC1(C)OB(O)c2cc(NC(=O)[C@@H](Cc3ccc(C(F)(F)F)cc3)NC(=O)[C@@H](N)CCCNC(=O)C(CN)CN)ccc21 [Compound 104, (S)-2-amino-5-(3-amino-2-(aminomethyl)propanamido)-N-((R)-1-(1-hydroxy-3,3-dimethyl-1,3-dihydrobenzo[c][1,2]oxaborol-6-ylamino)-1-oxo-3-(4-(trifluoromethyl)phenyl)propan-2-yl)pentanamide]	B (B = MPC8 of 2.5 μg/ml to less than 10 μg/mL.)	
CC1(C)OB(O)c2cc(C(=O)NC[C@@H](CCc3ccc(C(F)(F)F)cc3)NC(=O)[C@@H](N)CCC(=O)N(CCN)CCN)ccc21 [Compound 106, (S)-2-amino-N^5,N^5-bis(2-aminoethyl)-N^1-((R)-1-(1-hydroxy-3,3-dimethyl-1,3-dihydrobenzo[c][1,2]oxaborole-6-carboxamido)-4-(4-(trifluoromethyl)phenyl)butan-2-yl)pentanediamide]	B (B = MPC8 of 2.5 μg/ml to less than 10 μg/mL.)	
CC1(C)OB(O)c2cc(NC[C@@H](CCc3ccc(C(F)(F)F)cc3)NC(=O)[C@@H](N)CCC(=O)N(CCN)CCN)ccc21 [Compound 107, (S)-2-amino-N^5,N^5-bis(2-aminoethyl)-N^1-((R)-1-(1-hydroxy-3,3-dimethyl-1,3-dihydrobenzo[c][1,2]oxaborol-6-ylamino)-4-(4-(trifluoromethyl)phenyl)butan-2-yl)pentanediamide]	A (A = MPC8 of less than 2.5 μg/mL.)	
CC1(C)OB(O)c2cc(NC[C@@H](Cc3ccc(C(F)(F)F)cc3)NC(=O)[C@@H](N)CCC(=O)N(CCN)CCN)ccc21 [Compound 108, (S)-2-amino-N^5,N^5-bis(2-aminoethyl)-N^1-((R)-1-(1-hydroxy-3,3-dimethyl-1,3-dihydrobenzo[c][1,2]oxaborol-6-ylamino)-3-(4-(trifluoromethyl)phenyl)propan-2-yl)pentanediamide]	A (A = MPC8 of less than 2.5 μg/mL.)	
